≈ marks a conversion by molar mass, not a printed value. Entries after “also recorded” stand apart in the source; their conditions may differ. Like-named read-outs stand apart in the source and are kept apart here. Where a SMILES comes first, the peptide text is derived from it. Where no end group is shown, it is not given here.
What was measured:
E. coli ATCC 25922 = type: cell-based, Escherichia coli
P. aeruginosa ATCC 27853 = type: cell-based, Pseudomonas aeruginosa
human erythrocytes = type: cell-based; settings: pH 7.2
Procedure: Permission to acquire the fresh human blood used for this experiment was granted by the […] University Local Ethics Committee (No. 2023-2/32, 27 January 2023). First, 30 μL of fresh male human blood was suspended with 10 mL of autoclaved Tris saline buffer (TBS buffer, 10 mM Tris, 150 mM NaCl, pH 7.2) and centrifuged thrice for 5 min at 1500 rpm. […] Three replicates were performed for each peptide dose. A sample of 20% Triton-X 100/DMSO was used as a positive control. After incubation, the 96-well plate was centrifuged at 1500 rpm for 10 min. Absorbance was measured at 414 nm using a microplate reader (Gen5 Synergy HT BioTek). The % lysis of the peptide was calculated as follows:% lysis = OD414 - OD414 (blank)/OD414 (total lysis - blank) × 100

C. albicans ATCC 10231 = type: cell-based, Candida albicans
S. aureus ATCC 29213 [1] = type: cell-based, Staphylococcus aureus
S. aureus ATCC 29213 [2] = assay: Resistance development by serial passages; type: cell-based, Staphylococcus aureus; settings: for MIC: Staphylococcus aureus
[3] = test system: resistant Klebsiella pneumoniae (KP) strain; type: cell-based
HaCaT cell line = type: cell-based, human; settings: 24 h
Procedure: (§1) 3T3 and HaCaT cells were grown in DMEM consisting of 1% pen/strep and 10% FBS. A total of 5 × 10^4 cells were loaded into each well of a 96-well plate and incubated at 37 °C using a 5% CO2 incubator. All samples were measured in triplicate between 0.5–32 µg/mL concentrations and incubated at 37 °C for 24 h in a 5% CO2 incubator. Only cells and Mag-2 were used as negative and positive controls, respectively. After 24 h, cell cytotoxicity was evaluated using a cell proliferation kit (MTT, Roche, Basel, Switzerland) following the kit protocol and analyzed at 550 nm and 690 nm using a microplate reader (Gen5 Synergy HT BioTek). The concentration of peptides that killed 50% of the cells was determined as the IC50 in the cytotoxicity experiments.

3t3 cell line = type: cell-based, mouse; settings: 24 h
Procedure: as §1

proteinase K = target: T1, proteinase K (Parengyodontium album, UniProt P06873); assay: Stability toward enzymatic degradation (protease resistance assay); type: in vitro ADME; settings: peptide 1 mg/mL in TBS (50 mM Tris, 150 mM NaCl, pH 7.6) with 10% DMSO; proteinase K 1 mg/mL (30 U/mg); 37 °C, overnight (also 10 min, 30 min); HPLC at 214 nm
T1 construct: purchased Qiagen
Procedure: Peptide solutions were prepared at a final concentration of 1 mg/mL in TBS buffer (50 mM Tris, 150 mM NaCl, pH 7.6) including 10% DMSO. The proteinase K solution was adjusted to 1 mg/mL (enzyme activity = 30 U/mg). The peptide solution was then incubated at 37 °C overnight in an orbital shaker. After incubation, the reaction was blocked by adding 1% TFA (100 µL) in water. Peptide solutions with/without the proteinase K enzyme were analyzed at 214 nm using HPLC with an analytic column (AdvanceBio Peptide Plus, 2.1 × 150 mm, 2.7 µm, LC column, Agilent Technologies, Santa Clara, CA, USA) following the linear gradient method (30 min in a range of 5–80% acetonitrile including 0.025% TFA). MIC experiments were repeated to measure biological activities after treating the peptides with proteinase K.

T1 sequence (P06873 106-384): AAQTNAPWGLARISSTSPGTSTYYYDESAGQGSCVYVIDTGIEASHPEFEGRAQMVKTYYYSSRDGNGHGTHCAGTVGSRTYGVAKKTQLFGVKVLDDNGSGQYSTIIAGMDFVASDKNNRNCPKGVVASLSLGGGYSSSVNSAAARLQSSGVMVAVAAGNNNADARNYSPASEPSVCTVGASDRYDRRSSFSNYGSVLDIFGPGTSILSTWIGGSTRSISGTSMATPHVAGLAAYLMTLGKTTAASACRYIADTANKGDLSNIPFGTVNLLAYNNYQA

Molecule	MIC E. coli (E. coli ATCC 25922) [µg/mL]	MIC P. aeruginosa (P. aeruginosa ATCC 27853) [µg/mL]	MIC C. albicans (C. albicans ATCC 10231) [µg/mL]	MIC S. aureus (S. aureus ATCC 29213 [1]) [µg/mL]	also measured
CC(C)C[C@@H](NC(=O)[C@H](N)CCCNC(=N)N)C(=O)N[C@H](CC(C)C)C(=O)N[C@H](CCCNC(=N)N)C(=O)N[C@H](CC(C)C)C(=O)N[C@H](CC(C)C)C(=O)N[C@H](CC(C)C)C(=O)N[C@H](CC(C)C)C(=O)N[C@H](CCCNC(=N)N)C(=O)N[C@H](CC(C)C)C(=O)N[C@H](CC(C)C)C(=O)N[C@H](CCCNC(=N)N)C(N)=O [D-TN1] (HELM PEPTIDE1{[dR].[dL].[dL].[dR].[dL].[dL].[dL].[dL].[dR].[dL].[dL].[dR].[am]}$$$$V2.0)	8 (≈ 5.17 µM)	4 (≈ 2.59 µM)	1 (≈ 0.646 µM)	4 (≈ 2.59 µM)	HC50 (human erythrocytes): 77.63 µg/mL
CC(C)C[C@@H](NC(=O)[C@@H](CC(C)C)NC(=O)[C@@H](CC(C)C)NC(=O)[C@@H](CCCNC(=N)N)NC(=O)[C@@H](CC(C)C)NC(=O)[C@@H](CC(C)C)NC(=O)[C@@H](CCCNC(=N)N)NC(=O)[C@@H](CC(C)C)NC(=O)[C@@H](CC(C)C)NC(=O)[C@H](N)CCCNC(=N)N)C(N)=O [D-TN3] (HELM PEPTIDE1{[dR].[dL].[dL].[dR].[dL].[dL].[dR].[dL].[dL].[dL].[am]}$$$$V2.0)	2 (≈ 1.57 µM)	4 (≈ 3.13 µM)	0.25 (≈ 0.196 µM)	8 (≈ 6.26 µM)	HC50 (human erythrocytes): 32.63 µg/mL
CNC(C)C1CCC(N)C(OC2C(N)CC(N)C(OC3OCC(C)(O)C(NC)C3O)C2O)O1 (centres unmarked) [gentamicin]					MIC value in the sixth passage (S. aureus ATCC 29213 [2]; S. aureus ATCC 29213, continuous serial passaging): 8 µg/mL (≈ 16.8 µM); MIC (S. aureus ATCC 29213 [2]; ATCC29213, read-out: MIC value in the sixth passage): 8 µg/mL (≈ 16.8 µM); MIC (S. aureus ATCC 29213 [2]; ATCC29213, read-out: initial MIC value): 1 µg/mL (≈ 2.09 µM)
Polymyxin B [reference compound]					MIC KP1 ([3]; Table S2, strain KP1): 16 µg/mL; MIC KP2 ([3]; Table S2, strain KP2): 2 µg/mL; MIC KP8 ([3]; Table S2, strain KP8): 64 µg/mL; MIC KP9 ([3]; Table S2, strain KP9): 2 µg/mL; MIC KP13 ([3]; Table S2, strain KP13): 16 µg/mL; MIC KP22 ([3]; Table S2, strain KP22): 8 µg/mL; MIC KP28 ([3]; Table S2, strain KP28): 16 µg/mL; MIC KP29 ([3]; Table S2, strain KP29): 16 µg/mL; MIC KP35 ([3]; Table S2, strain KP35): 8 µg/mL; MIC KP40 ([3]; Table S2, strain KP40): 4 µg/mL; MIC KP41 ([3]; Table S2, strain KP41): 4 µg/mL; MIC KP42 ([3]; Table S2, strain KP42): 8 µg/mL; MIC KP46 ([3]; Table S2, strain KP46): 16 µg/mL; MIC KP52 ([3]; Table S2, strain KP52): 8 µg/mL
RAARAAARAAR-NH2 [TN6A5]	1024	>1024	128	>1024	
RALRALARALR-NH2 [TN6A1]	128	256	256	128	
RIIRIIIRIIR-NH2 [TN6I1]	32	128	128	16	
RILRILIRLIR-NH2 [TN6I2]	16	32	128	2	
RLLRLLLLRLLR-NH2 [TN1]	2	32	0.5	4	
RLLRLLLRLLR [D/L-TN6, TN6 template, arginine in L-form, leucine in L- and D-forms]					MIC C. albicans (C. albicans ATCC 10231; CLSI M27-A3): 8 µg/mL
RLLRLLLRLLR-NH2 [TN6]	2	8	0.5	2	IC50 HaCaT (HaCaT cell line): 15.32 µg/mL; IC50 3t3 (3t3 cell line): 29.80 µg/mL; Stability toward proteinase K (HPLC) (proteinase K): fragmented into different-sized molecules; also recorded: disappeared
RLLRLLRLLL [TN3-carboxy]	4	32	1	16	
RLLRLLRLLL-NH2 [TN3-amide]	8	4	2	8	
RLLRLLRLLLL-NH2 [TN8]	4	256	0.5	8	
RLLRLLRLLLRLLRLLR-NH2 [TN6(2)]	16	64	32	16	
RRLLRLLLRLLR-NH2 [RTN6]	2	8	4	1	
RVLRVLRVLL-NH2 [TN3V1]	16	32	4	8	
RVVRVVRVVV-NH2 [TN3V9]	64	256	128	16	

Reference: paper PMC11856857, “Protease-Resistant, Broad-Spectrum Antimicrobial Peptides with High Antibacterial and Antifungal Activity” (Life, 2025)
